The values below come from ChEMBL document CHEMBL1201862, “PubChem BioAssay data set” (2004).

Assay [1] is described as follows: A High Throughput Confirmatory Assay used to Identify Novel Compounds that Inhibit Mycobacterium Tuberculosis in the absence of Glycerol. Format: functional.
Assay [2] has as its target T1, Eukaryotic translation initiation factor 2-alpha kinase 3 (Homo sapiens, UniProt Q9NZJ5).
T1 sequence (Q9NZJ5 whole entry): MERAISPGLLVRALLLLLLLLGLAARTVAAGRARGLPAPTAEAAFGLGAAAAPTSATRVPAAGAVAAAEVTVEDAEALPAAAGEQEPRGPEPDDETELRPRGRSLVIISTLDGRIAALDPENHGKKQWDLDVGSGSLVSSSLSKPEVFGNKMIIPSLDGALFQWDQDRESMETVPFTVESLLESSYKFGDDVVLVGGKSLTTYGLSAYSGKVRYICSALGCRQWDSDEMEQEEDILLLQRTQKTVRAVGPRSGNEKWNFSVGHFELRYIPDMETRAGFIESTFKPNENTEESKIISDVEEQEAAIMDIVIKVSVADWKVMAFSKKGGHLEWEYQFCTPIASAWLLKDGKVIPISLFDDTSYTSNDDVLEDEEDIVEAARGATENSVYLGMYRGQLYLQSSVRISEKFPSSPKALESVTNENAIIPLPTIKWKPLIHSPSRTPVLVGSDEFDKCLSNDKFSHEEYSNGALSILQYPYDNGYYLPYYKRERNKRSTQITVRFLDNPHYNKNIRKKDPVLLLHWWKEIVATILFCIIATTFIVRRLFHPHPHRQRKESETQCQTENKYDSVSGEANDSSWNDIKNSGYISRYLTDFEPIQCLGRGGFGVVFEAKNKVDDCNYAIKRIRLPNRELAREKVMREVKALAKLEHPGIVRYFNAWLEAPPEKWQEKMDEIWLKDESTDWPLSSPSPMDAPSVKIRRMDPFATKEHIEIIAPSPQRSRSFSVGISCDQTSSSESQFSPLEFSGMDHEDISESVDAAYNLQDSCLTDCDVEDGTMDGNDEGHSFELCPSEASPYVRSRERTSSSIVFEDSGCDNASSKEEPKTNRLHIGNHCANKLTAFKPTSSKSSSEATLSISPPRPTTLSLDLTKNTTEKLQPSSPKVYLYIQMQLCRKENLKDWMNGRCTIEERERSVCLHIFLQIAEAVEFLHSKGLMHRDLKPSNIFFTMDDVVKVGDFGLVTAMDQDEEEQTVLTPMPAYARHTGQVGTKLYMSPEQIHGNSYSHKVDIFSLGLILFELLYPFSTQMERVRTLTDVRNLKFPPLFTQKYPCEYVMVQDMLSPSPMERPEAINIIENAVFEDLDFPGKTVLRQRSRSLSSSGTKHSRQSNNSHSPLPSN
The assay is described as follows: Dose response cell-based high-throughput screening assay to measure PERK inhibition. [Related pubchem assays: 1416 ]. Type of assay: functional.

The target in assay [3] is T1, Eukaryotic translation initiation factor 2-alpha kinase 3. Put plainly: Counterscreen assay for PERK inhibitors: Dose response cell-based high throughput screening assay to measure inhibition of PERK at 6 hours. [Related pubchem assays: 1522, 1416 ]. Type of assay: functional.
Assay [4] is described as follows: NIH3T3 cell viability loss – ATP luminescence, mouse fibroblasts, counter-screen, dose response (AID 2010).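 Further: cells exposed to compound for about 90 hours before reading.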 Format: functional, cell-based.
Assay [5] is described as follows: Trypanosoma cruzi growth suppression in host cells – NIH3T3 host cells, beta-gal luminescence, confirmation (AID 2044).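 Further: intracellular parasites grown in NIH/3T3 mouse fibroblasts as host cells; luminescent beta-galactosidase reporter signal from transgenic T. cruzi replicating inside host cells; inhibitors lower the luminescence signal.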 Format: functional, cell-based.
Another assay relates to HeLa. The assay is described as follows: viability loss in HeLa cells – cell-based, 24 h, cherry-picked samples, cytotoxicity control, dose response (AID 504726).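 Further: potency for cytotoxicity as loss of luminescence signal.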 Format: functional. To be noted: Homo sapiens.
Assay [6] can be described thus: A Cell Based Secondary Assay To Explore Cytotoxicity of Compounds that Sensitize Mycobacterium Tuberculosis to Beta-Lactam Antibiotics. Format: functional.
Another assay is described as follows: cells. Format: functional, cell-based.
Assay [7] can be described thus: luciferase reporter signal reduction – luminescence, H4-C neuroglioblastoma cells, dose response (AID 2458).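 Further: H4 neuroglioblastoma cells stably carrying a luciferase reporter gene fusion.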 Format: functional, cell-based.
The target in assay [8] is Peroxisome proliferator-activated receptor gamma/Nuclear receptor coactivator 2 (Homo sapiens, UniProt P37231). Put plainly: TR-FRET dose response biochemical High Throughput Screening assay for agonists of the steroid receptor coactivator 2 (SRC-2) recruitment by the peroxisome proliferator-activated receptor gamma (PPAR gamma): non-selective agonists. [Related pubchem assays: 1297, 1032 ]. Type of assay: functional.

Assay [9] in a line: blockers of bursicon-stimulated LGR2 cAMP reporter – cell-based, HEK293, CRE-luciferase reporter, cherry pick, set 2, dose response (AID 743343).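 Further: transfected cells were stimulated with diluted bursicon conditioned medium after compound addition.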 Format: functional.
Assay [10] can be described thus: Luminescence Cell-Based Dose Response HTS to Identify Inhibitors of 5'UTR Stem-Loop Driven Prion Protein mRNA Translation in H4 Neuroglioblastoma Cells. [Related pubchem assays: 1827 (Project Summary), 1813 (Primary HTS)]. Format: functional.
Assay [11] is described as follows: blockade of melanocortin 4 receptor signaling – cell-based, plate reader, cherry pick, counter-screen for LGR2 antagonist project, dose response (AID 743444).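 Further: transfected HEK 293 cells stimulated with alpha-MSH peptide; potency of inhibitors of the alpha-MSH evoked signal.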 Type of assay: functional.
Assay [12] is described as follows: alpha-synuclein stem-loop translation blockers – luminescence, H4 neuroglioblastoma cells, dose confirmation, confirmation (AID 2454).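 Further: H4 neuroglioblastoma cells carrying an alpha-synuclein 5'UTR luciferase reporter; potency for inhibition of the luciferase signal.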 Format: functional, cell-based.
Assay [13] in a line: A549 cell cytotoxicity, dose response, cytotoxicity control, plate reader, cherry-pick, antagonist series (AID 743412). Format: functional, cell-based.
Assay [14] has as its target Peroxisome proliferator-activated receptor gamma/Nuclear receptor coactivator 3 (Homo sapiens, UniProt P37231). Put plainly: TR-FRET dose response biochemical High Throughput Screening assay for agonists of the steroid receptor coactivator 3 (SRC-3) recruitment by the peroxisome proliferator-activated receptor gamma (PPAR gamma): non-selective agonists. [Related pubchem assays: 1301 (Confirmation screen.), 1048 (Primary screen.)]. Type of assay: functional.

Assay [15] can be described thus: luciferase reporter signal suppression in cells – H4 neuroglioma cells, luminescence, dose response (AID 1990). Type of assay: functional, cell-based.
The target of assay [16] is Peroxisome proliferator-activated receptor gamma/Nuclear receptor coactivator 1 (Homo sapiens, UniProt P37231). The assay is described as follows: TR-FRET dose response biochemical High Throughput Screening assay for agonists of the steroid receptor coactivator 1 (SRC-1) recruitment by the peroxisome proliferator-activated receptor gamma (PPAR gamma): non-selective agonists. [Related pubchem assays (depositor defined):AID1300, AID1808, AID504735, AID631]. Type of assay: protein assay.
Peroxisome proliferator-activated receptor gamma/Nuclear receptor coactivator 1, sequence (P37231 whole entry): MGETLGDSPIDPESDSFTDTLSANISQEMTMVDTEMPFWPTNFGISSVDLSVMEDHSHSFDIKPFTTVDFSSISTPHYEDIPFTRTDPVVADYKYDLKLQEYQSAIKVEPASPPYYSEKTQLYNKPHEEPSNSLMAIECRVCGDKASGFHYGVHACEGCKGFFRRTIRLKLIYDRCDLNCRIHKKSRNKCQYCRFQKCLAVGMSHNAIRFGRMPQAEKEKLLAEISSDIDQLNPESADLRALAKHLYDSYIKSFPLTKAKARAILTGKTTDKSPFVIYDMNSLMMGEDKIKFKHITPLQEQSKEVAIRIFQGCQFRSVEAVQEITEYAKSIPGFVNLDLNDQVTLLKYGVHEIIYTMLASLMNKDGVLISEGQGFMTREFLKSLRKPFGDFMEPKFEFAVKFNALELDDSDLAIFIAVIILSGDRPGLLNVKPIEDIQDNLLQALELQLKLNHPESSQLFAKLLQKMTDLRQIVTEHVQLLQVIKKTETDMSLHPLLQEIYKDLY
Peroxisome proliferator-activated receptor gamma/Nuclear receptor coactivator 1, sequence (Q15788 whole entry, further chain): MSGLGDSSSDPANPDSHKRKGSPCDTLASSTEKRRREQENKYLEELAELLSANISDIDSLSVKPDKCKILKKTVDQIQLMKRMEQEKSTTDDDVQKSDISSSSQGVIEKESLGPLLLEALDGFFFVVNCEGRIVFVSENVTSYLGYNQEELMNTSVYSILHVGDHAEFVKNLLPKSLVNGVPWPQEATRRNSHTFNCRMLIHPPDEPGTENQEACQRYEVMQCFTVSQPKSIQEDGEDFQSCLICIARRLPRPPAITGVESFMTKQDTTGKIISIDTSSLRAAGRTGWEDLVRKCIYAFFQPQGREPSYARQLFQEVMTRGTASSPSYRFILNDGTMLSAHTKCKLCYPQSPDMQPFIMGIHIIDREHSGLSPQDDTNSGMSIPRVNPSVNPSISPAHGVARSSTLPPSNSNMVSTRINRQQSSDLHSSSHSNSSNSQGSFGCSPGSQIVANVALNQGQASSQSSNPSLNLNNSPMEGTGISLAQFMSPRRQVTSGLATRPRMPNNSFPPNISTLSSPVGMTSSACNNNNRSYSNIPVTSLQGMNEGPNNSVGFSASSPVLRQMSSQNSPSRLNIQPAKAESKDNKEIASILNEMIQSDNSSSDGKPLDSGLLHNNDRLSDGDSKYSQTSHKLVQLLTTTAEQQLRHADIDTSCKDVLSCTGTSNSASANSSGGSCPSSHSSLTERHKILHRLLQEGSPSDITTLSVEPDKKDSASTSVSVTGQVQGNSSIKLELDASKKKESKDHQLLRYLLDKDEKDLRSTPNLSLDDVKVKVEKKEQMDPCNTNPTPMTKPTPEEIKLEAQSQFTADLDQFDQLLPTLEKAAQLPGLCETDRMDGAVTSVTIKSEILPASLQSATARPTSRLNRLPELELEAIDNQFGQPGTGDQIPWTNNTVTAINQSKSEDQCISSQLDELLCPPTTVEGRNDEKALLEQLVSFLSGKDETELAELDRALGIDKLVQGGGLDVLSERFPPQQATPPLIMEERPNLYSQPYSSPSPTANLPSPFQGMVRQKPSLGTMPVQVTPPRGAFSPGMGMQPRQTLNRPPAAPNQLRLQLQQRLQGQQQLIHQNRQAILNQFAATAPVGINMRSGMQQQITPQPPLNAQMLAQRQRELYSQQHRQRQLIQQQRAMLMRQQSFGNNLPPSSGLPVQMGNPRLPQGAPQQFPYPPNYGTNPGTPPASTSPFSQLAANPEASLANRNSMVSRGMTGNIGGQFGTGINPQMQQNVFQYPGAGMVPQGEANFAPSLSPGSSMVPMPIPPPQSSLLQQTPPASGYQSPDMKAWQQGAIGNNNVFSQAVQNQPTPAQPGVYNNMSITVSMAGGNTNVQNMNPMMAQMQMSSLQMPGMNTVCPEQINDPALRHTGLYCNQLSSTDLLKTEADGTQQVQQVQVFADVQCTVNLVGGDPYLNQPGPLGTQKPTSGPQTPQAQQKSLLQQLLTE

Assay [17] deals with BJ. Put plainly: growth inhibition of engineered Ras-driven BJ cells – cell-based, alamar blue fluorescence, cherrypicked samples, dose response (AID 2631).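 Further: confirmatory dose-response assay in RAS-dependent BJ fibroblasts engineered with TERT, LT and ST, with cytotoxicity read by fluorescence.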 Format: functional. To be noted: Homo sapiens.
The test system of assay [18] is BJ. The assay is described as follows: cells. Type of assay: functional, cell-based. To be noted: Homo sapiens.
The subject of assay [19] is BJ. Put plainly: BJ-TERT-LT-ST fibroblast viability loss – cell-based, RAS-independent, luminescence, dose response (AID 1935).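 Further: BJ fibroblasts immortalized with TERT plus LT and ST oncogenes.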 Format: functional. To be noted: Homo sapiens.
Assay [20] in a line: DRD fibroblast viability loss – cell-based, non-viral oncogenic, luminescence, dose response (AID 1934). Type of assay: functional. To be noted: Homo sapiens.
The nature of assay [21]: alpha-synuclein stem-loop luciferase translation blockers – H4 neuroglioma cells, luminescence, confirmation (AID 1988). Format: functional, cell-based.
Assay [22] relates to BJ. The assay is described as follows: BJ-TERT fibroblast viability loss – cell-based, RAS-independent, luminescence, dose response (AID 1933). To be noted: Homo sapiens. Type of assay: functional.

Each structure is given as a SMILES string. Activity calls are given as the source filed them. For most assays here, no stated cut-off is given here; in the data, actives have a measured EC50 and inactives only a lower limit.

Peroxisome proliferator-activated receptor gamma/Nuclear receptor coactivator 3, sequence (P37231 whole entry): as the sequence (P37231 whole entry) above
Peroxisome proliferator-activated receptor gamma/Nuclear receptor coactivator 3, sequence (Q9Y6Q9 whole entry, further chain): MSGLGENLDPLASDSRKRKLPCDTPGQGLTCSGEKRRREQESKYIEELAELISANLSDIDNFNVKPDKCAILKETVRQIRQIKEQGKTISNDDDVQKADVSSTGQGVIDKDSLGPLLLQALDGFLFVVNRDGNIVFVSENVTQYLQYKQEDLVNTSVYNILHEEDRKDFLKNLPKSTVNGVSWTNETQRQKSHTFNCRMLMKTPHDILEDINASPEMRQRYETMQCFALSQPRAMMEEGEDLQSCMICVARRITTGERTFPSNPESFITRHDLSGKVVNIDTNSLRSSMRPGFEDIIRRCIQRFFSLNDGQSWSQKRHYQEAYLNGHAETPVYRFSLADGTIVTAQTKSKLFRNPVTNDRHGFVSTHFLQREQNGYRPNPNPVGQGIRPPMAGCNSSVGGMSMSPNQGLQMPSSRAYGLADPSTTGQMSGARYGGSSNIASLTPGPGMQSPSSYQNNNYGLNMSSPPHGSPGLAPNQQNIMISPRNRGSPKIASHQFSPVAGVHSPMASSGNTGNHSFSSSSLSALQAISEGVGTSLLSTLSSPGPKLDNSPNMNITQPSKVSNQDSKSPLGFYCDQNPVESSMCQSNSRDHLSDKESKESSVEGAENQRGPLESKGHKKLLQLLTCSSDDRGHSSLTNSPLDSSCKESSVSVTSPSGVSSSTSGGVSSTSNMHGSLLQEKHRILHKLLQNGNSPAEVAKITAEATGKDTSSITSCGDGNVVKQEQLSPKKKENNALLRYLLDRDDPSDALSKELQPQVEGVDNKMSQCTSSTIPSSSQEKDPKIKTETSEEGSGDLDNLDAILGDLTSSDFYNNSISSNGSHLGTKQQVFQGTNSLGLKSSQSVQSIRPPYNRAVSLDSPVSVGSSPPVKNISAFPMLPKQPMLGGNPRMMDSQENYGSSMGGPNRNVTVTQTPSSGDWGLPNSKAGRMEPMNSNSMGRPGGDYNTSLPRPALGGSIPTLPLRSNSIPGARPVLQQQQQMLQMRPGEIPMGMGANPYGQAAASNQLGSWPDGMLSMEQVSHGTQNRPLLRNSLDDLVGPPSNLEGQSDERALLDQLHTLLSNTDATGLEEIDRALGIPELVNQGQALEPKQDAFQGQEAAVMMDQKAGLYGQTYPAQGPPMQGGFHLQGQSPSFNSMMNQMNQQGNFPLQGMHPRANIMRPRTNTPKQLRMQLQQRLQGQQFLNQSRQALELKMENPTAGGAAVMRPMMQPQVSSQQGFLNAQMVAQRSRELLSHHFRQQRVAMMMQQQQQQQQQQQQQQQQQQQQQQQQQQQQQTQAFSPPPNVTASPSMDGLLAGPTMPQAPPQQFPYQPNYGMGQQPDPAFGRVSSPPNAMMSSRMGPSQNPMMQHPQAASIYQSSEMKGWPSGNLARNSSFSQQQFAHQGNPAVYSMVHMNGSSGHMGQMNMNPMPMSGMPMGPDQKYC

`Cc1nn(-c2ccccc2)c(Cl)c1C(=O)Nc1nnc(C2CCCCC2)s1`: the IC50 in [1] is > 50 µM (active).

`O=C(NNC(=O)C1CCCN(S(=O)(=O)c2ccc3ccccc3c2)C1)C1CC1` (centres undefined): the EC50 in [2] was 23.2 µM (not active); in assay [3] it was > 55.7 µM (not active).

On to `Cc1ccc(-c2nnn(CC(=O)NC3CCN(Cc4ccccc4)CC3)n2)cc1`, for which the EC50 in assay [4] was > 60 µM (not active); in [5] it was 141 nM (active). Also, the AC50 in the assay on HeLa is 276 µM (active).

Consider `O=C1C=C2C=C[C@@H]3CC2(O1)[C@H]1CCCCN31`, for which, in [6], the CC50 is 39.4 µM (active).

Turning to `O=C(c1ccccc1)N1CCSc2sccc2C1=O`, the EC50 in “cells” was 7.25 µM (active); in assay [7] it was 0.896 µM (active); in assay [8] it was 15.8 µM (not active); in [10], < 100 nM (active); in assay [12] it was 1.08 µM (active); in assay [14] it was > 79.4 µM (not active). Moreover, the figures for the EC50 in [15] and in [16] were 7.87 µM (active) and 18.9 µM (inactive), respectively. Further, the AC50 was 4 µM (active) in [9], 3.77 µM (active) in [11] and > 52 µM (inactive) in assay [13].

On to `O=C(N/N=C/c1cccs1)c1cc(-c2ccncc2)nc2ccccc12`, for which the EC50 in the assay with BJ [17] is 240 nM (active); with BJ [18] it was 712 nM (active); in “cells”, 2.19 µM (active); in the assay with BJ [19] it was 671 nM (active); in assay [7], > 12 µM (inconclusive); in assay [20], 463 nM (active). The EC50 in [10] was 294 nM (active); in assay [12], > 12 µM (inconclusive); in assay [15] it was 4.61 µM (active); in assay [21] it was < 100 nM (active); in the assay with BJ [22], 602 nM (active).
